Consider 11 molecules from US20230391772A1, “METHODS AND COMPOSITIONS FOR TARGETED PROTEIN DEGRADATION” (Ranok Therapeutics (Hangzhou) Co. Ltd., priority 2020, published 2023).

The test system of assay [1] is MIA PaCa-2 human pancreatic carcinoma. Briefly: MIA PaCa-2 CCK-8 proliferation assay. The class given is cell-based. The conditions noted are these: Homo sapiens, MIA PaCa-2, 72 h, MIA PaCa-2 cells. Summed up: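 KRAS(G12C) lines were used: MIA PaCa-2 with 2 copies, and NCI-H358 and NCI-H23 with 1 copy each. Cells were treated with 3-fold compound dilutions from 20 μM to 1.02 nM, and proliferation was read by CCK-8 absorbance. % inhibition was calculated against DMSO-treated cells after subtracting the cell-free medium blank.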

In assay [2] the target is T1, KRAS(G12C) (Homo sapiens, UniProt P01116, G12C). Nature of the assay: KRAS(G12C)/SOS1 homogeneous time-resolved fluorescence (HTRF) assay. Further details: purchased Cisbio 63ADK000CB16PEG. The conditions noted are these: absence of GTP, 4° C. for 3 hr, read-out: KRAS (G12C) binding. A digest of the protocol: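 Three-hour incubation at 4 °C of 3-fold compound dilutions (lowest 1.02 nM) with KRAS(G12C), SOS1 and detection reagents, GTP absent. Disruption of the KRAS(G12C)/SOS1 complex detected by time-resolved fluorescence.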
Background: Time-resolved FRET reads energy transfer from a long-lived donor to a nearby acceptor.

In assay [3] the target is T1, KRAS(G12C). Nature of the assay: KRAS(G12C) Western blot protein degradation assay in LU65A cells. In kind it is cell-based. Further details: LU65A human lung cancer cell line, which expresses KRAS(G12C); host or cells: LU65A. The settings on record: 6 hr. Summed up: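 KRAS levels read by fluorescent Western blot (β-actin as reference) on BCA-normalized lysates. Exposure to a compound concentration range at 37 °C lasted 6 hr in LU65A and 48 hr in MIA PaCa-2; DC50 taken as half-maximal degradation concentration.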
(In general: In western blotting, separated proteins are transferred to a membrane and probed.)

A value given as a limit tells only on which side of the number the result lay.

T1 sequence (P01116 1-188 isoform P01116-2 G12C): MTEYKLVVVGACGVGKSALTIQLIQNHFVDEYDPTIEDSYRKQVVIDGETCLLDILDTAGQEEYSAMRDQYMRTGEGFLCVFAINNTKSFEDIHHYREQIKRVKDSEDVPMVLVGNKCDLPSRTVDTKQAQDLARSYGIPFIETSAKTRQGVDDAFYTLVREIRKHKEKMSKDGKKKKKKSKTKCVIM

With `C=CC(=O)N1CCN(c2nc(OC[C@@H]3CC[C@H](CN4CCN(C(=O)C5CCN(Cc6ccc(-n7c(O)nnc7-c7cc(C)c(O)cc7O)cc6)CC5)CC4)N3C)nc3c2CCN(c2cccc4ccccc24)C3)C[C@@H]1CC#N` [Compound 256, 2-[(2S)-4-(2-{[(2S,5R)-5-({4-[1-({4-[3-(2,4-dihydroxy-5-methylphenyl)-5-hydroxy-1,2,4-triazol-4-yl]phenyl}methyl)piperidine-4-carbonyl]piperazin-1-yl}methyl)-1-methylpyrrolidin-2-yl]methoxy}-7-(naphthalen-1-yl)-5H,6H,8H-pyrido[3,4-d]pyrimidin-4-yl)-1-(prop-2-enoyl)piperazin-2-yl]acetonitrile], in assay [1], the EC50 (as a rule, the concentration that produces a half-maximal response) is greater than 1000 nM. Further, the IC50 at KRAS(G12C) [2] is less than 100 nM. In addition, the DC50 (commonly the concentration giving 50% degradation) at KRAS(G12C) [3] is greater than 1000 nM.
`C=CC(=O)N1CCN(c2nc(OC[C@@H]3C[C@H](N4CCC5(CCN(Cc6ccc(-n7c(C(=O)NCC)nnc7-c7cc(C(C)C)c(O)cc7O)cc6)CC5)CC4)CN3C)nc3c2CCN(c2cccc4cccc(Cl)c24)C3)C[C@@H]1CC#N` [Compound 259, 4-[4-({9-[(3S,5S)-5-({[7-(8-chloronaphthalen-1-yl)-4-[(3S)-3-(cyanomethyl)-4-(prop-2-enoyl)piperazin-1-yl]-5H,6H,8H-pyrido[3,4-d]pyrimidin-2-yl]oxy}methyl)-1-methylpyrrolidin-3-yl]-3,9-diazaspiro[5.5]undecan-3-yl}methyl)phenyl]-5-(2,4-di hydroxy-5-isopropylphenyl)-N-ethyl-1,2,4-triazole-3-carboxamide] returned an EC50 in assay [1] of less than 100 nM. At KRAS(G12C) [2], the IC50 was less than 100 nM. This molecule also gave a DC50 on KRAS(G12C) [3] of less than 100 nM.
`C=CC(=O)N1CCN(c2nc(OC[C@@H]3C[C@H](N4CCN(C(=O)C5CCN(Cc6ccc(-n7c(C(=O)NCC(F)(F)F)nnc7-c7cc(C(C)C)c(O)cc7O)cc6)CC5)CC4)CN3C)nc3c2CCN(c2cccc4cccc(Cl)c24)C3)C[C@@H]1CC#N` [Compound 261, 4-{4-[(4-{4-[(3S,5S)-5-({[7-(8-chloronaphthalen-1-yl)-4-[(3S)-3-(cyanomethyl)-4-(prop-2-enoyl)piperazin-1-yl]-5H,6H,8H-pyrido[3,4-d]pyrimidin-2-yl]oxy}methyl)-1-methylpyrrolidin-3-yl]piperazine-1-carbonyl}piperidin-1-yl)methyl]phenyl}-5-(2,4-dihydroxy-5-isopropylphenyl)-N-(2,2,2-trifluoroethyl)-1,2,4-triazole-3-carboxamide]: in assay [1], the EC50 is less than 100 nM. The IC50 at KRAS(G12C) [2] was less than 100 nM. On KRAS(G12C) [3], this molecule yielded a DC50 of 100 to 1000 nM.
`C=CC(=O)N1CCN(c2nc(OC[C@@H]3CC[C@H](CN4CCN(Cc5ccc(-n6c(C(=O)NCC)nnc6-c6cc(C(C)C)c(O)cc6O)cc5)CC4)N3C)nc3c2CCN(c2cccc4cccc(Cl)c24)C3)C[C@@H]1CC#N` [Compound 263, 4-{4-[(4-{[(2R,5S)-5-({[7-(8-chloronaphthalen-1-yl)-4-[(3S)-3-(cyanomethyl)-4-(prop-2-enoyl)piperazin-1-yl]-5H,6H,8H-pyrido[3,4-d]pyrimidin-2-yl]oxy}methyl)-1-methylpyrrolidin-2-yl]methyl}piperazin-1-yl)methyl]phenyl}-5-(2,4-dihydroxy-5-isopropylphenyl)-N-ethyl-1,2,4-triazole-3-carboxamide]: in assay [1], the EC50 is less than 100 nM. The IC50 on KRAS(G12C) [2] was less than 100 nM. This molecule also yielded a DC50 on KRAS(G12C) [3] greater than 1000 nM.
Molecule `C=CC(=O)N1CCN(c2nc(OC[C@@H]3C[C@H](N4CCN(C(=O)C5CCN(Cc6ccc(-n7c(O)nnc7-c7cc(C(C)C)c(O)cc7O)cc6)CC5)CC4)CN3C)nc3c2CCN(c2cccc4cccc(Cl)c24)C3)C[C@@H]1CC#N` [Compound 264, 2-[(2S)-4-[7-(8-chloronaphthalen-1-yl)-2-{[(2S,4S)-4-{4-[1-({4-[3-(2,4-dihydroxy-5-isopropylphenyl)-5-hydroxy-1,2,4-triazol-4-yl]phenyl}methyl)piperidine-4-carbonyl]piperazin-1-yl}-1-methylpyrrolidin-2-yl]methoxy}-5H,6H,8H-pyrido[3,4-d]pyrimidin-4-yl]-1-(prop-2-enoyl)piperazin-2-yl]acetonitrile] gave an EC50 in assay [1] of 100 to 1000 nM. Further, the IC50 at KRAS(G12C) [2] was less than 100 nM. This molecule also yielded a DC50 on KRAS(G12C) [3] of 100 to 1000 nM.
In assay [1], `C=CC(=O)N1CCN(c2nc(OC[C@@H]3C[C@H](N4CCN(C(=O)C5CCN(Cc6ccc(-n7c(O)nnc7-c7cc(C)c(O)cc7O)cc6)CC5)CC4)CN3C)nc3c2CCN(c2cccc4cccc(Cl)c24)C3)C[C@@H]1CC#N` [Compound 265, 2-[(2S)-4-[7-(8-chloronaphthalen-1-yl)-2-{[(2S,4S)-4-{4-[1-({4-[3-(2,4-dihydroxy-5-methylphenyl)-5-hydroxy-1,2,4-triazol-4-yl]phenyl}methyl)piperidine-4-carbonyl]piperazin-1-yl}-1-methylpyrrolidin-2-yl]methoxy}-5H,6H,8H-pyrido[3,4-d]pyrimidin-4-yl]-1-(prop-2-enoyl)piperazin-2-yl]acetonitrile] came in with an EC50 greater than 1000 nM. Moreover, at KRAS(G12C) [2], the IC50 is less than 100 nM. The molecule further registered a DC50 at KRAS(G12C) [3] greater than 1000 nM.
In assay [1], `C=CC(=O)N1CCN(c2nc(OCCN3CCN(C(=O)C4CCN(Cc5ccc(-n6c(C(=O)NCC(F)(F)F)nnc6-c6cc(C(C)C)c(O)cc6O)cc5)CC4)C[C@H]3CN(C)C)nc3c2CCN(c2cccc4cccc(Cl)c24)C3)C[C@@H]1CC#N` [Compound 266, 4-(4-((4-((R)-4-(2-((4-((S)-4-acryloyl-3-(cyanomethyl)piperazin-1-yl)-7-(8-chloronaphthalen-1-yl)-5,6,7,8-tetrahydropyrido[3,4-d]pyrimidin-2-yl)oxy)ethyl)-3-((dimethylamino)methyl)piperazine-1-carbonyl)piperidin-1-yl)methyl)phenyl)-5-(2,4-dihydroxy-5-isopropylphenyl)-N-(2,2,2-trifluoroethyl)-4H-1,2,4-triazole-3-carboxamide] returned an EC50 greater than 1000 nM. Further, at KRAS(G12C) [2], the IC50 is 100 to 1000 nM. Also, at KRAS(G12C) [3], the DC50 lay in the range of 100 to 1000 nM.
In turn, `C=CC(=O)N1CCN(c2nc(OC[C@@H]3CC[C@H](CN4CCN(Cc5ccc(-n6c(O)nnc6-c6cc(C(C)C)c(O)cc6O)cc5)CC4)N3C)nc3c2CCN(c2cccc4ccc(F)c(Cl)c24)C3)C[C@@H]1CC#N` [Compound 268, 2-[(2S)-4-[7-(8-chloro-7-fluoronaphthalen-1-yl)-2-{[(2S,5R)-5-{[4-({4-[3-(2,4-dihydroxy-5-isopropylphenyl)-5-hydroxy-1,2,4-triazol-4-yl]phenyl}methyl)piperazin-1-yl]methyl}-1-methylpyrrolidin-2-yl]methoxy}-5H,6H,8H-pyrido[3,4-d]pyramidin-4-yl]-1-(prop-2-enoyl)piperazin-2-yl]acetonitrile] returned an EC50 in assay [1] of 100 to 1000 nM. Moreover, the IC50 at KRAS(G12C) [2] was less than 100 nM. Further, the DC50 on KRAS(G12C) [3] is greater than 1000 nM.
In the case of `C=CC(=O)N1CCN(c2nc(OC[C@@H]3CC[C@H](CN4CCN(C(=O)C5CCN(Cc6ccc(-n7c(C(=O)NCC)nnc7-c7cc(C(C)C)c(O)cc7O)cc6)CC5)CC4)N3C)nc3c2CCN(c2cccc4ccc(F)c(Cl)c24)C3)C[C@@H]1CC#N` [Compound 269, 4-(4-{[4-(4-{[(2R,5S)-5-({[7-(8-chloro-7-fluoronaphthalen-1-yl)-4-[(3S)-3-(cyanomethyl)-4-(prop-2-enoyl)piperazin-1-yl]-5H,6H,8H-pyrido[3,4-d]pyrimidin-2-yl]oxy}methyl)-1-methylpyrrolidin-2-yl]methyl}piperazine-1-carbonyl)piperidin-1-yl]methyl}phenyl)-5-(2,4-dihydroxy-5-isopropylphenyl)-N-ethyl-1,2,4-triazole-3-carboxamide], in assay [1], the EC50 is less than 100 nM. Moreover, the IC50 at KRAS(G12C) [2] was less than 100 nM. Besides, the DC50 at KRAS(G12C) [3] was greater than 1000 nM.
On to `C=CC(=O)N1CCN(c2nc(OC[C@@H]3CC[C@H](CN4CCN(C(=O)C5CCN(Cc6ccc(-n7c(C(=O)NCC)nnc7-c7cc(C(C)C)c(O)cc7O)cc6)CC5)CC4)N3C)nc3c2CCN(c2cccc4cccc(C)c24)C3)C[C@@H]1CC#N` [Compound 274, 4-(4-{[4-(4-{[(2R,5S)-5-[({4-[(3S)-3-(cyanomethyl)-4-(prop-2-enoyl)piperazin-1-yl]-7-(8-methylnaphthalen-1-yl)-5H,6H,8H-pyrido[3,4-d]pyrimidin-2-yl}oxy)methyl]-1-methylpyrrolidin-2-yl]methyl}piperazine-1-carbonyl)piperidin-1-yl]methyl}phenyl)-5-(2,4-dihydroxy-5-isopropylphenyl)-N-ethyl-1,2,4-triazole-3-carboxamide], for which the EC50 in assay [1] fell in the range of 100 to 1000 nM. Moreover, the IC50 on KRAS(G12C) [2] was less than 100 nM. The DC50 at KRAS(G12C) [3] is greater than 1000 nM.
As to `C=CC(=O)N1CCN(c2nc(OC[C@@H]3C[C@H](N4CCN(CC5CCN(Cc6ccc(-n7c(O)nnc7-c7cc(C(C)C)c(O)cc7O)cc6)CC5)CC4)CN3C)nc3c2CCN(c2cccc4cccc(Cl)c24)C3)C[C@@H]1CC#N` [Compound 275, 2-[(2S)-4-[7-(8-chloronaphthalen-1-yl)-2-{[(2S,4S)-4-(4-{[1-({4-[3-(2,4-dihydroxy-5-isopropylphenyl)-5-hydroxy-1,2,4-triazol-4-yl]phenyl}methyl)piperidin-4-yl]methyl}piperazin-1-yl)-1-methylpyrrolidin-2-yl]methoxy}-5H,6H,8H-pyrido[3,4-d]pyrimidin-4-yl]-1-(prop-2-enoyl)piperazin-2-yl]acetonitrile], in assay [1], the EC50 was 100 to 1000 nM. Besides, the IC50 at KRAS(G12C) [2] is less than 100 nM. Also, the DC50 at KRAS(G12C) [3] is 100 to 1000 nM.
